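Five concentrations, 48 hours, 96-well plates. At the GI50, growth is halved.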 The source made the active and inactive calls. No stated cut-off is given here; in the data, active = GI50 up to about 1.1 µM and inactive = higher.
Assays:
Assay in all cases: NCI-60 cell line screen, 48 h
CCRF-CEM = system: CCRF-CEM
SF-539 = system: SF-539
A498 = system: A498
M19-MEL = system: M19-MEL
KM12 = system: KM12
CAKI-1 = system: CAKI-1
MOLT-4 = system: MOLT-4
OVCAR-3 = system: OVCAR-3
SK-OV-3 = system: SK-OV-3
HCT-116 = system: HCT-116
SNB-19 = system: SNB-19
RPMI-8226 = system: RPMI-8226
NCI-H23 = system: NCI-H23
M14 = system: M14
KM-20L2 = system: KM-20L2
UACC-62 = system: UACC-62
A549 = system: A549
SK-MEL-2 = system: SK-MEL-2
DLD-1 = system: DLD-1
SNB-78 = system: SNB-78
RXF 631 = system: RXF 631
DMS-114 = system: DMS-114
SK-MEL-5 = system: SK-MEL-5
K562 = system: K562
SW-620 = system: SW-620
OVCAR-8 = system: OVCAR-8
HCT-15 = system: HCT-15
786-0 = system: 786-0
SR = system: SR
OVCAR-4 = system: OVCAR-4
HCC 2998 = system: HCC 2998
SF-268 = system: SF-268
UACC-257 = system: UACC-257
RXF 393 = system: RXF 393
SN12C = system: SN12C
SNB-75 = system: SNB-75
UO-31 = system: UO-31
SK-MEL-28 = system: SK-MEL-28
HOP-18 = system: HOP-18
HT-29 = system: HT-29
LXFL 529 = system: LXFL 529
NCI-H460 = system: NCI-H460
HOP-62 = system: HOP-62
LOX IMVI = system: LOX IMVI
HOP-92 = system: HOP-92
NCI-H226 = system: NCI-H226
IGROV-1 = system: IGROV-1
SF-295 = system: SF-295
COLO 205 = system: COLO 205
ACHN = system: ACHN
NCI-H522 = system: NCI-H522
TK-10 = system: TK-10
XF498 = system: XF498
DMS-273 = system: DMS-273
OVCAR-5 = system: OVCAR-5
U-251 = system: U-251
Malme-3M = system: Malme-3M
HL-60 = system: HL-60
EKVX = system: EKVX
MDA-N = system: MDA-N
MDA-MB-231 = system: MDA-MB-231
Hs-578T = system: Hs-578T
MCF7 = system: MCF7
T47D = system: T47D
MDA-MB-435 = system: MDA-MB-435
PC-3 = system: PC-3
NCI/ADR-RES = system: NCI/ADR-RES

## COC(=O)C(C(=O)C(=O)Nc1ccc(Br)cc1)c1nc2ccc(Cl)cc2nc1O (stereo unspecified)
CCRF-CEM
  GI50: > 90.2 µM (inactive)
SF-539
  GI50: > 100 µM (inactive)
A498
  GI50: > 100 µM (inactive)
M19-MEL
  GI50: > 100 µM (inactive)
KM12
  GI50: > 66.5 µM (inactive)
CAKI-1
  GI50: > 100 µM (inactive)
MOLT-4
  GI50: 80.7 µM (inactive)
OVCAR-3
  GI50: > 100 µM (inactive)
SK-OV-3
  GI50: > 100 µM (inactive)
HCT-116
  GI50: > 100 µM (inactive)
SNB-19
  GI50: > 100 µM (inactive)
RPMI-8226
  GI50: > 100 µM (inactive)
NCI-H23
  GI50: > 100 µM (inactive)
M14
  GI50: > 100 µM (inactive)
KM-20L2
  GI50: > 100 µM (inactive)
UACC-62
  GI50: > 100 µM (inactive)
A549
  GI50: > 100 µM (inactive)
SK-MEL-2
  GI50: > 100 µM (inactive)
DLD-1
  GI50: > 100 µM (inactive)
SNB-78
  GI50: > 100 µM (inactive)
RXF 631
  GI50: > 100 µM (inactive)
DMS-114
  GI50: > 80 µM (inactive)
SK-MEL-5
  GI50: > 100 µM (inactive)
K562
  GI50: > 67.8 µM (inactive)
SW-620
  GI50: > 20 µM (inactive)
OVCAR-8
  GI50: > 100 µM (inactive)
HCT-15
  GI50: > 41.2 µM
786-0
  GI50: > 100 µM (inactive)
SR
  GI50: > 100 µM (inactive)
OVCAR-4
  GI50: > 34.5 µM (inactive)
HCC 2998
  GI50: > 100 µM (inactive)
SF-268
  GI50: > 100 µM (inactive)
UACC-257
  GI50: > 100 µM (inactive)
RXF 393
  GI50: > 100 µM (inactive)
SN12C
  GI50: > 100 µM (inactive)
SNB-75
  GI50: 81.7 µM (inactive)
UO-31
  GI50: > 82.4 µM (inactive)
SK-MEL-28
  GI50: > 100 µM (inactive)
HOP-18
  GI50: > 100 µM (inactive)
HT-29
  GI50: > 48 µM (inactive)
LXFL 529
  GI50: > 100 µM (inactive)
NCI-H460
  GI50: > 57.1 µM (inactive)
HOP-62
  GI50: > 100 µM (inactive)
LOX IMVI
  GI50: > 76.7 µM (inactive)
HOP-92
  GI50: > 100 µM (inactive)
NCI-H226
  GI50: 61 µM (inactive)
IGROV-1
  GI50: > 100 µM (inactive)
SF-295
  GI50: > 100 µM (inactive)
COLO 205
  GI50: > 45.2 µM (inactive)
ACHN
  GI50: > 91.8 µM (inactive)
NCI-H522
  GI50: > 100 µM (inactive)
TK-10
  GI50: > 100 µM (inactive)
XF498
  GI50: > 100 µM (inactive)
DMS-273
  GI50: > 70.6 µM (inactive)
OVCAR-5
  GI50: > 100 µM (inactive)
U-251
  GI50: > 100 µM (inactive)
Malme-3M
  GI50: > 100 µM (inactive)
HL-60
  GI50: > 83.2 µM (inactive)
EKVX
  GI50: > 100 µM (inactive)

## CN(C)C(=S)/N=c1\ssc(=S)n1Cc1cccnc1
CCRF-CEM
  GI50: 8.53 µM (inactive)
SF-539
  GI50: 4.02 µM (inactive)
A498
  GI50: 10.1 µM (inactive)
M19-MEL
  GI50: 1.51 µM (inactive)
KM12
  GI50: 1 µM (active)
CAKI-1
  GI50: 3.16 µM (inactive)
MOLT-4
  GI50: 6.46 µM (inactive)
MDA-N
  GI50: 0.324 µM (active)
OVCAR-3
  GI50: 1.65 µM (inactive)
SK-OV-3
  GI50: 4.36 µM (inactive)
MDA-MB-231
  GI50: 6.07 µM (inactive)
HCT-116
  GI50: 3.2 µM (inactive)
SNB-19
  GI50: 5.15 µM (inactive)
RPMI-8226
  GI50: 3.47 µM (inactive)
NCI-H23
  GI50: 2.64 µM (inactive)
M14
  GI50: 2.37 µM (inactive)
KM-20L2
  GI50: 2.06 µM (inactive)
Hs-578T
  GI50: 1.86 µM (inactive)
MCF7
  GI50: 2.91 µM (inactive)
UACC-62
  GI50: 2.17 µM (inactive)
A549
  GI50: 4.93 µM (inactive)
SK-MEL-2
  GI50: 2.29 µM (inactive)
DLD-1
  GI50: 3.95 µM (inactive)
SNB-78
  GI50: > 100 µM (inactive)
RXF 631
  GI50: 4.39 µM (inactive)
DMS-114
  GI50: 0.783 µM (active)
SK-MEL-5
  GI50: 1.67 µM (inactive)
K562
  GI50: 1.12 µM (active)
SW-620
  GI50: 1.26 µM (inactive)
OVCAR-8
  GI50: 3.66 µM (inactive)
HCT-15
  GI50: 1.23 µM
786-0
  GI50: 4.07 µM (inactive)
SR
  GI50: 0.638 µM (active)
OVCAR-4
  GI50: 19.3 µM (inactive)
HCC 2998
  GI50: 2.54 µM (inactive)
SF-268
  GI50: 15.2 µM (inactive)
UACC-257
  GI50: 4.23 µM (inactive)
RXF 393
  GI50: 1.47 µM (inactive)
SN12C
  GI50: 5.18 µM (inactive)
SNB-75
  GI50: 1.91 µM (inactive)
UO-31
  GI50: 13.1 µM (inactive)
SK-MEL-28
  GI50: 9.4 µM (inactive)
HOP-18
  GI50: > 100 µM (inactive)
T47D
  GI50: > 100 µM (inactive)
MDA-MB-435
  GI50: 0.277 µM (active)
HT-29
  GI50: 1.66 µM (inactive)
PC-3
  GI50: 1.67 µM (inactive)
LXFL 529
  GI50: 6.15 µM (inactive)
NCI-H460
  GI50: 2.81 µM (inactive)
HOP-62
  GI50: 4.91 µM (inactive)
LOX IMVI
  GI50: 4.27 µM (inactive)
HOP-92
  GI50: 3.81 µM (inactive)
NCI-H226
  GI50: > 55.6 µM (inactive)
IGROV-1
  GI50: 7.18 µM (inactive)
SF-295
  GI50: 1.81 µM (inactive)
COLO 205
  GI50: 2.2 µM (inactive)
ACHN
  GI50: 6.76 µM (inactive)
NCI-H522
  GI50: 0.531 µM (active)
TK-10
  GI50: 14.2 µM (inactive)
XF498
  GI50: 3.15 µM (inactive)
DMS-273
  GI50: 1.09 µM (active)
OVCAR-5
  GI50: 35.9 µM (inactive)
NCI/ADR-RES
  GI50: 1.01 µM (active)
U-251
  GI50: 3.38 µM (inactive)
Malme-3M
  GI50: 2.16 µM (inactive)
HL-60
  GI50: 1.76 µM (inactive)
EKVX
  GI50: > 88.9 µM (inactive)
